The subject of one data set is Karpas-299 cells. Description: Cellular Toxicity Test (1), CellTiter-Glo cell viability. The format is cell-based, human. The following applies: Homo sapiens, 96 h, cultured 4 days, cell viability. The procedure: Karpas-299 cells (European Collection of Authenticated Cell Cultures, hereinafter, ECACC), which are human lymphoma cell lines, were cultured in RPMI 1640 (GIBCO) containing 10% fetal bovine serum (MP Biomedicals) (hereinafter, referred to as the “culture medium”). Cells were prepared to be 2×10^6 cells/mL in the culture medium, and were added to a 96 well microplate for cell culturing in an amount of 50 μL for each well. Compounds of Examples or Comparative Example compound 4 times diluted with the culture medium in 8 stages were added to the microplate in an amount of 50 μL for each well. These were cultured at 37 degree under 5% CO2 for 4 days. After culturing, the microplate was taken out from the incubator, and was left at rest at room temperature for 10 minutes. To each well, 50 μL of CellTiter-Glo Luminescent Cell Viability Assay (Promega) was added, and the resultant mixture was stirred. This mixture was incubated at a dark place for 20 minutes. Using a microplate luminometer, luminescence at each well was measured, thereby calculating the cell viability. In addition, from the value of cell viability, the IC50 value was calculated.
The IC50 value was calculated by the following formula: IC50 (nM)=antilog(LOG10(a/b)×(e−d)/(c−d)+LOG10b) a: concentration a of test substance b: concentration b of test substance c: cell viability upon adding test substance with concentration a d: cell viability upon adding test substance with concentration b e: intermediate value between maximum and minimum among cell viabilities upon adding test substances with different concentrations (a and b are concentrations crossing the cell viability e, and a>b is indicated).
The cell viability at each concentration was calculated by the following formula: Cell Viability (%)=a′/b′×100 a′: mean value of luminescence amount of wells to which test substance was added (n=6) b′: mean value of luminescence amount of wells to which test substance was not added (n=6) (n represents the number of evaluations performed per test substance concentration).

Data set [1] can be described thus: Membrane Permeability Test, parallel artificial membrane permeability assay (PAMPA). The format is in vitro ADME. The following applies: pH 7.4, pH7.4, 37° C., read-out: Pe (pH7.4). The procedure:
By the parallel artificial membrane permeability assay (PAMPA), the membrane permeability of compounds of Examples was examined as follows: To the donor plate, System solution (pION inc.) and GIT Lipid-0 (pION inc.) were added in an amount of 200 μL and 4 μL for each well, respectively. To the acceptor plate, Acceptor Sink Buffer (pION inc.) was added in an amount of 200 μL. Both plates were superposed and incubated at 37° C. for 4 hours, and then, UVs in the solutions on the side of acceptor and on the side of donor were measured with an UV plate reader (190 to 500 nm). Compounds with poor UV absorption were measured by LC-MS. The permeability coefficient Pe (10^−6 cm/sec) of the drug was calculated by the following formula.
[formula] • ra=(VD/VA)Pa^(A-D)/Pa^(D-A)=rVPe^(A-D)/Pa^(D-A) • rV=(VD/VA) • VD=volume of doner well • VA=volume of acceptor well • t=permeation time • τ^SS=steady state time • R=retention • CD=CA=concentration in donor and acceptor well

pIC50: −log10 of the molar value. Bounds are passed on as bounds.

The text below walks through data of patent US11795195B2, “Antibody-drug conjugates including hemiasterlin derivative” (Sumitomo Pharma Co., Ltd., priority 2017, dated 2023).

As to `CN[C@H](C(=O)N[C@H](C(=O)N(C)[C@H](/C=C(\C)C(=O)N[C@H](CC(=O)O)C(=O)NCCN1C(=O)C=CC1=O)C(C)C)C(C)(C)C)C(C)(C)c1cn(C)c2ccccc12` [Example M24], the pIC50 with Karpas-299 cells was 6.78. For the same compound, in data set [1], the Papp at 4 h was under 0.1 ×10⁻⁶ cm/s. On to `CN[C@H](C(=O)N[C@H](C(=O)N(C)[C@H](/C=C(\C)C(=O)N[C@H](CCC(=O)NCCN1C(=O)C=CC1=O)C(=O)O)C(C)C)C(C)(C)C)C(C)(C)c1cccc(-c2ccccc2)c1` [Example M41], for which the pIC50 in the data set with Karpas-299 cells was 7.58. Also, the Papp at 4 h in data set [1] was found to be 0.8 ×10⁻⁶ cm/s. `CN[C@H](C(=O)N[C@H](C(=O)N(C)[C@H](/C=C(\C)C(=O)N[C@H](CCC(=O)O)C(=O)NCCN1C(=O)C=CC1=O)C(C)C)C(C)(C)C)C(C)(C)c1ccccc1` [Example M15] had a pIC50 in the data set on Karpas-299 cells of under 6.00.

With `CN[C@H](C(=O)N[C@H](C(=O)N(C)[C@H](/C=C(\C)C(=O)N[C@@H](CCC(=O)O)C(=O)NCCN1C(=O)C=CC1=O)C(C)C)C(C)(C)C)C(C)(C)c1cn(C)c2ccccc12` [Example M22], the pIC50 with Karpas-299 cells was 6.81. In addition, the Papp at 4 h in data set [1] is under 0.1 ×10⁻⁶ cm/s. In the data set with Karpas-299 cells, `CN[C@H](C(=O)N[C@H](C(=O)N(C)[C@H](/C=C(\C)C(=O)N[C@@H](CC(=O)O)C(=O)NCCN1C(=O)C=CC1=O)C(C)C)C(C)(C)C)C(C)(C)c1ccccc1` [Example M14] gave a pIC50 of under 6.00. `CN[C@H](C(=O)N[C@H](C(=O)N(C)[C@H](/C=C(\C)C(=O)N[C@H](CCC(=O)NCCN1C(=O)C=CC1=O)C(=O)O)C(C)C)C(C)(C)C)C(C)(C)c1cccc(Br)c1` [Example M44] gave a pIC50 in the data set with Karpas-299 cells of 8.04. The Papp at 4 h in data set [1] was found to be 6.8 ×10⁻⁶ cm/s. The corresponding values for `CN[C@H](C(=O)N[C@H](C(=O)N(C)[C@H](/C=C(\C)C(=O)N[C@H](CCC(=O)NCCN1C(=O)C=CC1=O)C(=O)O)C(C)C)C(C)(C)C)C(C)(C)c1ccc(C(=O)O)cc1` [Example M36] are under 6.00 and 0.6 ×10⁻⁶ cm/s. For the compound `CN[C@H](C(=O)N[C@H](C(=O)N(C)[C@H](/C=C(\C)C(=O)N[C@@H](CCC(=O)NCCN1C(=O)C=CC1=O)C(=O)O)C(C)C)C(C)(C)C)C(C)(C)c1cn(C)c2ccccc12` [Example M18], the pIC50 in the data set on Karpas-299 cells is 6.83. Also, the Papp at 4 h in data set [1] was under 0.1 ×10⁻⁶ cm/s. Consider `CN[C@H](C(=O)N[C@H](C(=O)N(C)[C@H](/C=C(\C)C(=O)N[C@H](CCC(=O)N[C@@H](CCCCNC(=O)CCCCCN1C(=O)C=CC1=O)C(=O)O)C(=O)O)C(C)C)C(C)(C)C)C(C)(C)c1cn(C)c2ccccc12` [Example M2, N-{(2E,4S)-2,5-Dimethyl-4-[methyl(N,β,β,1-tetramethyl-L-tryptophyl-3-methyl-L-valyl)amino]hex-2-enoyl}-D-γ-glutamyl-N^6-[6-(2,5-dioxo-2,5-dihydro-1H-pyrrol-1-yl)hexanoyl]-L-lysine], for which, in the data set on Karpas-299 cells, the pIC50 is 6.11. In data set [1], the Papp at 4 h was under 0.1 ×10⁻⁶ cm/s.

The compound `CN[C@H](C(=O)N[C@H](C(=O)N(C)[C@H](/C=C(\C)C(=O)NCCCC[C@@H](NC(=O)CCCN1C(=O)C=CC1=O)C(=O)O)C(C)C)C(C)(C)C)C(C)(C)c1ccccc1` [Example M28] showed a pIC50 in the data set on Karpas-299 cells of 7.29. For the same compound, in data set [1], the Papp at 4 h was under 0.1 ×10⁻⁶ cm/s. As to `CNC(C(=O)N[C@H](C(=O)N(C)[C@H](/C=C(\C)C(=O)N[C@H](CCC(=O)O)C(=O)O)C(C)C)C(C)(C)C)C(C)(C)c1ccc(OC(=O)CCN2C(=O)C=CC2=O)cc1` (stereo partly drawn) [Example M30], in data set [1], the Papp at 4 h is under 0.1 ×10⁻⁶ cm/s. Consider `CN[C@H](C(=O)N[C@H](C(=O)N(C)[C@H](/C=C(\C)C(=O)N[C@H](CCC(=O)NCCCCN1C(=O)C=CC1=O)C(=O)O)C(C)C)C(C)(C)C)C(C)(C)c1ccccc1` [Example M17], for which the pIC50 with Karpas-299 cells was 7.46. Besides, in data set [1], the Papp at 4 h was under 0.1 ×10⁻⁶ cm/s. `CN[C@H](C(=O)N[C@H](C(=O)N(C)[C@H](/C=C(\C)C(=O)N[C@H](CCC(=O)O)C(=O)NCCN1C(=O)C=CC1=O)C(C)C)C(C)(C)C)C(C)(C)c1cn(C)c2ccccc12` [Example M25] showed a pIC50 in the data set with Karpas-299 cells of 6.85. For the same compound, the Papp at 4 h in data set [1] is under 0.1 ×10⁻⁶ cm/s. Compound `CN[C@H](C(=O)N[C@H](C(=O)N(C)[C@H](/C=C(\C)C(=O)N[C@H](CC(=O)O)C(=O)NCCN1C(=O)C=CC1=O)C(C)C)C(C)(C)C)C(C)(C)c1ccccc1` [Example M13] had a pIC50 in the data set with Karpas-299 cells of 6.00. On to `CN[C@H](C(=O)N[C@H](C(=O)N(C)[C@H](/C=C(\C)C(=O)N[C@@H](CC(=O)NCCN1C(=O)C=CC1=O)C(=O)O)C(C)C)C(C)(C)C)C(C)(C)c1ccccc1` [Example M10], for which the pIC50 in the data set on Karpas-299 cells was 6.26. Besides, the Papp at 4 h in data set [1] was under 0.1 ×10⁻⁶ cm/s. In the case of `CN[C@H](C(=O)N[C@H](C(=O)N(C)[C@H](/C=C(\C)C(=O)N[C@H](CCC(=O)NCCN1C(=O)C=CC1=O)C(=O)O)C(C)C)C(C)(C)C)C(C)(C)c1cccc(OC)c1` [Example M37], in the data set on Karpas-299 cells, the pIC50 was 6.39. Besides, the Papp at 4 h in data set [1] was under 0.1 ×10⁻⁶ cm/s. In turn, `C/C(=C\[C@H](C(C)C)N(C)C(=O)[C@@H](NC(=O)[C@H]1CCCCN1C(C)C)C(C)(C)C)C(=O)N[C@H](CCC(=O)NCCN1C(=O)C=CC1=O)C(=O)O` [Example M43] showed a pIC50 in the data set with Karpas-299 cells of 8.42. Also, the Papp at 4 h in data set [1] came out at 2 ×10⁻⁶ cm/s. In the data set on Karpas-299 cells, `CN[C@H](C(=O)N[C@H](C(=O)N(C)[C@H](/C=C(\C)C(=O)N[C@H](CCC(=O)NCCN1C(=O)C=CC1=O)C(=O)O)C(C)C)C(C)(C)C)C(C)(C)C1CCCCC1` [Example M33] gave a pIC50 of 6.64. Besides, the Papp at 4 h in data set [1] is under 0.1 ×10⁻⁶ cm/s.

Regarding `CN[C@H](C(=O)N[C@H](C(=O)N(C)[C@H](/C=C(\C)C(=O)N[C@@H](CCC(=O)O)C(=O)NCCN1C(=O)C=CC1=O)C(C)C)C(C)(C)C)C(C)(C)c1ccccc1` [Example M12], the pIC50 with Karpas-299 cells was 7.53. Besides, in data set [1], the Papp at 4 h is under 0.1 ×10⁻⁶ cm/s.

The compound `CN[C@H](C(=O)N[C@H](C(=O)N(C)[C@H](/C=C(\C)C(=O)N[C@H](CCC(=O)NCCCN1C(=O)C=CC1=O)C(=O)O)C(C)C)C(C)(C)C)C(C)(C)c1ccccc1` [Example M16] had a pIC50 with Karpas-299 cells of 6.24.

`CN[C@H](C(=O)N[C@H](C(=O)N(C)[C@H](/C=C(\C)C(=O)N[C@H](CCC(=O)NCCN1C(=O)C=CC1=O)C(=O)O)C(C)C)C(C)(C)C)C(C)(C)c1ccc2ccccc2c1` [Example M40]: the pIC50 with Karpas-299 cells was 6.75. For the same compound, in data set [1], the Papp at 4 h is under 0.1 ×10⁻⁶ cm/s. The corresponding values for `CN[C@H](C(=O)N[C@H](C(=O)N(C)[C@H](/C=C(\C)C(=O)N[C@@H](CCC(=O)NCCN1C(=O)C=CC1=O)C(=O)O)C(C)C)C(C)(C)C)C(C)(C)c1ccccc1` [Example M11] are under 6.00 and under 0.1 ×10⁻⁶ cm/s. Consider `CN[C@@H](C(=O)N[C@H](C(=O)N(C)[C@H](/C=C(\C)C(=O)N[C@H](CCC(=O)NCCN1C(=O)C=CC1=O)C(=O)O)C(C)C)C(C)(C)C)C(C)(C)c1cccc(Br)c1` [Example M45], for which the pIC50 in the data set with Karpas-299 cells is 6.72. The Papp at 4 h in data set [1] is 4 ×10⁻⁶ cm/s. As for `CN[C@H](C(=O)N[C@H](C(=O)N(C)[C@H](/C=C(\C)C(=O)N[C@H](CCC(=O)NCCN1C(=O)C=CC1=O)C(=O)O)C(C)C)C(C)(C)C)C(C)(C)c1cccc(C#N)c1` [Example M35], in the data set with Karpas-299 cells, the pIC50 is 8.07. Moreover, the Papp at 4 h in data set [1] turned out to be 0.8 ×10⁻⁶ cm/s. In the data set with Karpas-299 cells, `CN[C@H](C(=O)N[C@H](C(=O)N(C)[C@H](/C=C(\C)C(=O)N[C@H](CCC(=O)NCCCN1C(=O)C=CC1=O)C(=O)O)C(C)C)C(C)(C)C)C(C)(C)c1cn(C)c2ccccc12` [Example M23] gave a pIC50 of 7.30. In data set [1], the Papp at 4 h was under 0.1 ×10⁻⁶ cm/s. Compound `C/C(=C\[C@H](C(C)C)N(C)C(=O)[C@@H](NC(=O)[C@H]1CCCCN1C(=O)CCN1C(=O)C=CC1=O)C(C)(C)C)C(=O)N[C@H](CCC(=O)O)C(=O)O` [Example M29] gave a pIC50 in the data set with Karpas-299 cells of under 6.00. In addition, the Papp at 4 h in data set [1] is under 0.1 ×10⁻⁶ cm/s. As to `C/C(=C\[C@H](C(C)C)N(C)C(=O)[C@@H](NC(=O)[C@@H](N(C)C)C(C)(C)c1ccccc1)C(C)(C)C)C(=O)N[C@H](CCC(=O)NCCN1C(=O)C=CC1=O)C(=O)O` [Example M49, N^2—((S,E)-4-((S)-2-((S)-2-(Dimethylamino)-3-methyl-3-phenylbutanamido)-N,3,3-trimethylbutanamido)-2,5-dimethylhex-2-enoyl)-N^5-(2-(2,5-dioxo-2,5-dihydro-1H-pyrrolo-1-yl)ethyl)-D-glutamine], the pIC50 in the data set on Karpas-299 cells was under 6.00.
